The values that follow come from ChEMBL document CHEMBL4017454, “Bioactive terpenoids from Silybum marianum and their suppression on NO release in LPS-induced BV-2 cells and interaction with iNOS” (Bioorg Med Chem Lett, 2017).

In data set [1] the test system is BV-2. The data set can be described thus: Inhibition of LPS-induced NO production in mouse BV2 cells after 20 hrs by Griess assay. In kind it is functional, cell-based. As to conditions: BV-2, 20 h.
Data set [2] concerns BV-2. The data set can be described thus: Cytotoxicity against mouse BV2 cells assessed as cell survival by MTT assay. In kind it is cell-based.

In the data set on BV-2 [1], `CSC(=N)N.O=S(=O)(O)O` gave an IC50 of 2.5 µM. The Activity result in the data set with BV-2 [2] is “Non-Toxic”.
With `CC1=C2C[C@H]([C@@](C)(O)CO)CC[C@@]2(C)[C@H](O)CC1=O`, in the data set with BV-2 [1], 6.8 µM corresponded to half-maximal inhibition (IC50). For the same molecule, the Activity entry in the data set with BV-2 [2] was “Non-Toxic”.
`CC(C)(O)c1ccc(CO)c(O[C@@H]2O[C@H](CO)[C@@H](O)[C@H](O)[C@H]2O)c1`: the IC50 in the data set on BV-2 [1] turned out to be 14.1 µM. The Activity entry in the data set on BV-2 [2] was “Non-Toxic”.
The matching figures for `Cc1ccc([C@@H](C)CO)cc1O`: 17.8 µM and “Non-Toxic”.
`CC(C)(O)c1ccc(CO)c(O)c1` returned an IC50 with BV-2 [1] of 15.2 µM. The Activity result in the data set with BV-2 [2] is reported as “Non-Toxic”.
